Measured values from patent publication US8961944B2, “Use of delta-tocopheryl-carbohydrate as a depigmenting agent” (Pierre Fabre Dermo-Cosmetique, priority 2009, dated 2015).
Read-outs that look alike come from different tables or passages of the source.

Legend:
B16-F10 cells = test: Inhibition of α-MSH-stimulated melanogenesis (intracellular melanin) in B16-F10 cells; format: cell-based; conditions: for percent inhibition of intracellular melanin / inhibition at 50 µM: 50 μM; for percent inhibition of intracellular melanin / inhibition at 10 µM / inhibition at 50 µM: α-MSH (0.1 μM) stimulation; for inhibition at 10 µM / inhibition at 50 µM: Mus musculus, read-out: percent inhibition of intracellular melanin
Experimental: B16-F10 cells are inoculated in 96-well plates in DMEM (Dulbecco's Modified Eagle's Medium) supplemented with Foetal Calf Serum (FCS) and incubated for 24 hours at 37° C., 5% CO2. Melanogenesis is stimulated by α-MSH (0.1 μM) for 3 or 5 days. Each concentration of active substance is tested in triplicate. Total melanin and intracellular melanin dissolved in lysis buffer are then assayed by reading absorbance at 405 nm. Total proteins are assayed in the lysate according to protocol “SRD/TO/154/012” and the results are expressed in mg melanin/mg proteins. The percentage of activity is calculated as follows: % inhibition=[([…])/NMC]×100 NMC being the normalised mean of the control NMT being the normalised mean of the treated

glucocerebrosidase = target: T1, glucocerebrosidase (Homo sapiens, UniProt P04062); conditions: compared with reference derivative 4-methylumbelliferyl glucopyranoside; cited from earlier work
T1 sequence (P04062 40-536): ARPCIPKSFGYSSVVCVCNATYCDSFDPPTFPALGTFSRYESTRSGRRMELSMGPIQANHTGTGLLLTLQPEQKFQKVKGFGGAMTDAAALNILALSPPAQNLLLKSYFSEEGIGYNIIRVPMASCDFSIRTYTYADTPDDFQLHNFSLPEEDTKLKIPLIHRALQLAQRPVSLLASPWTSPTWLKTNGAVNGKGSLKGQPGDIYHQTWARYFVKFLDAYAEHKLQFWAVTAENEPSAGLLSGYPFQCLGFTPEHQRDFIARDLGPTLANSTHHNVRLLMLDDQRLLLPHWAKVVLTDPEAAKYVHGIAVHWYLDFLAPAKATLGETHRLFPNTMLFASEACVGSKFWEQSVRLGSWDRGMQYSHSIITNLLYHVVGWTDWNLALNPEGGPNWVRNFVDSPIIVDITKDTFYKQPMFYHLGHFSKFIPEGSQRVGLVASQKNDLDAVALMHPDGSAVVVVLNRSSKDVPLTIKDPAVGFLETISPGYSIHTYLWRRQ

[1] = compared with delta-tocopherol; cited from earlier work

Cc1cc(O)cc2c1O[C@](C)(CCC[C@H](C)CCC[C@H](C)CCCC(C)C)CC2 [Delta-tocopherol, delta-tocopherol, reference compound]
percent inhibition of intracellular melanin (B16-F10 cells; 3 days): 41% | percent inhibition of intracellular melanin (B16-F10 cells; 5 days): 48%

Cc1cc(O[C@@H]2O[C@H](CO)[C@@H](O)[C@H](O)[C@H]2O)cc2c1O[C@](C)(CCC[C@H](C)CCC[C@H](C)CCCC(C)C)CC2 [Delta-tocopheryl-glucopyranoside, delta-tocopheryl-glucopyranoside]
release of delta-tocopherol by enzymatic hydrolysis (glucocerebrosidase): slowly releases delta-tocopherol, with lower kinetics than a reference derivative | antioxidant capacity [1]: weak antioxidant capacity compared to that of delta-tocopherol | inhibition at 10 µM (B16-F10 cells; B16-F10, 72 h, 3 days): 22% | inhibition at 50 µM (B16-F10 cells; B16-F10, 72 h, 3 days): 68% | inhibition at 10 µM (B16-F10 cells; B16-F10, 120 h, 5 days): 38% | inhibition at 50 µM (B16-F10 cells; B16-F10, 120 h, 5 days): 90% | depigmenting activity (B16-F10 cells; compared with delta-tocopherol (see example 1)): quite higher than that of delta-tocopherol
